US11058781B2, “Diazacarbazole derivatives as tau-PET-ligands” (Hoffmann-La Roche Inc., priority 2013, dated 2021)

How the values were obtained:
[1] = tested on: native tau aggregates; test: TAU radioligand in-vitro displacement assay ([3H]T808 autoradiography on AD brain sections); format: binding; conditions: human AD brain sections; radioligand [3H]T808 10 nM; 50 mM Tris pH 7.4, room temperature, 30 min
Protocol: This in vitro binding assay assesses the affinity of compounds for native tau aggregates. The compounds are co-incubated with the well-established tau specific radioligand [^3H]T808 and the compound's displacement potency of [^3H]T808 binding is determined by in vitro autoradiography using human Alzheimer's disease (AD) brain sections (see FIG. 2).
AD human brains are purchased from Banner Sun Health Research Institute (Sun City, Ariz., USA). Pathological diagnosis of AD is made according to standard NIA-Reagan Institute criteria based on neuropathological data. The radioligand [^3H]T808 was synthesized in-house ([^3H]-2-[4-(2-Fluoro-ethyl)-piperidin-1-yl]-benzo[4,5]imidazo[1,2-a]pyrimidine, radiochemical purity 99.0%). […] For the autoradiography FujiFilm Imaging Plates (BAS-IP TR 2025) are exposed to the sections and read with a FujiFilm IP reader (BAS-5000). […]
The signal intensity (Dens−PSL/mm2) in the region of interest (ROI) of the autoradiogram is quantified with the software MCID analysis (version 7.0, Imaging Research Inc.). The specific binding (SB) of [^3H]T808 binding in absence or in presence of a compound is calculated by subtracting the non-specific binding signal in the white matter, thus yielding SB[3H]T808 only and SBcompound. The % displacement by the various compounds is calculated as following: % displacement=100−(SBcompound/SB[3H]T808 only)*100. […]

[2] = tested on: tau aggregates; test: Autoradiogram of the tritiated radioligand on a human cortical brain section (Braak V AD patient); format: binding; conditions: radioligand concentration 3.2 nM, Braak V staged AD patient
Protocol: FIG. 1: Autoradiogram of ^3H-2-(6-fluoro-pyridin-3-yl)-9H-dipyrido[2,3-b;3′,4′-d]pyrrole.
Autoradiogram of ^3H-2-(6-fluoro-pyridin-3-yl)-9H-dipyrido[2,3-b;3′,4′-d]pyrrole incubated with a human cortical brain section obtained from a Braak V staged AD patient. The radioligand concentration was 3.2 nM.

tau aggregates, sequence (P10636 623-708 limits assumed): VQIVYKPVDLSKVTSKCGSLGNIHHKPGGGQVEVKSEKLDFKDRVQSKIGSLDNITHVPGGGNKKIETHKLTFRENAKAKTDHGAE

With `Fc1ccc(-c2ccc3c(n2)[nH]c2ccncc23)cn1` [Example 1, 2-(6-Fluoro-pyridin-3-yl)-9H-dipyrido[2,3-b;3′,4′-d]pyrrole] the “% displacement of [^3H]T808 (10 nM)” value [1] was 43%.
In the case of “^3H-2-(6-Fluoro-pyridin-3-yl)-9H-dipyrido[2,3-b;3′,4′-d]pyrrole [Example 2]”, the “staining pattern in autoradiogram” value [2] is reported as “punctate staining of tau aggregates in a layered distribution pattern”.
